Measured values taken from publication PMC9632963, “Preclinical characterization and phase I clinical trial of CT053PTSA targets MET, AXL, and VEGFR2 in patients with advanced solid tumors” (Frontiers in Immunology, 2022).
Read-outs that look alike come from different tables or passages of the source.

Test: Phase I trial: clinical pharmacokinetics in plasma
Type: in vivo, human
Conditions: for AUC(0-inf) / Cmax / AUC(0-t) / AUC / half-life / Tmax / Vd/F: human, plasma; for AUC(0-t): read-out: AUC0-168; for AUC: read-out: AUC0-τ; for Vd/F: read-out: Vz/F
Procedure: A clinical pharmacokinetic study of CT053PTSA was performed for both single doses and multiple doses. Blood samples were collected from each subject at prespecified times before and after single-dose administration (systemic blood samples: before treatment and 0.5, 1, 2, 3, 4, 5, 8, 12, 24, 36, 48, 72, 120 and 168 hours after treatment) and during multiple dosing (cycle 1 before treatment on Days 8, 15 and 22, as well as systemic blood samples on Day 28). […]
Statistical analysis of CT053-treated tumors versus vehicle-treated tumors or versus nontreated tumors was performed by repeated-measures ANOVA. The data from the tumor xenograft models were expressed as the means ± standard error of the mean (SEM) and were plotted as a function of time. Noncompartmental pharmacokinetic analysis was performed using Phoenix WinNonlin Version 6.2.1 (Certara Inc., NJ, USA). Demographics and laboratory results of all the subjects were summarized using descriptive statistics. The pharmacokinetic parameters Tmax and T1/2 were shown as the median (min, max) and mean ± SD, respectively. A two-sided P < 0.05 was considered to indicate statistical significance. Statistical analysis was performed by using GraphPad Prism 5.0 (GraphPad Prism, RRID : SCR_002798) and SPSS software version 19.0 (SPSS, RRID : SCR_002865).

[1] = oral, 15 mg, Multiple doses day 28, 15 mg, n=1
[2] = oral, 15 mg, Single dose day 1, 15 mg, n=1
[3] = oral, 30 mg, Multiple doses day 28, 30 mg, n=1
[4] = oral, 30 mg, Single dose day 1, 30 mg, n=1
[5] = oral, 60 mg, Multiple doses day 28, 60 mg, n=3, Geometric Mean (CV%)
[6] = oral, 60 mg, Single dose day 1, 60 mg, n=5, Geometric Mean (CV%)
[7] = oral, 100 mg, Multiple doses day 28, 100 mg, n=5, Geometric Mean (CV%)
[8] = oral, 100 mg, Single dose day 1, 100 mg, n=7, Geometric Mean (CV%)
[9] = oral, 150 mg, Multiple doses day 28, 150 mg, n=1
[10] = oral, 150 mg, Single dose day 1, 150 mg, n=4, Geometric Mean (CV%)

Cc1c(C(=O)Nc2ccc(Oc3ccnc4cc(OCC(C)(C)O)ccc34)c(F)c2)c(=O)n(-c2ccccc2)n1C [CT053PTSA]
Cl/F (Multiple doses day 28, 15 mg, n=1): 1580 mL/h | Cl/F (Multiple doses day 28, 30 mg, n=1): 1090 mL/h | Cl/F (Multiple doses day 28, 150 mg, n=1): 4470 mL/h | Cl/F (Single dose day 1, 15 mg, n=1): 2420 mL/h | Cl/F (Single dose day 1, 30 mg, n=1): 1000 mL/h | steady state reached (daily dosing): ≤ 8 days | AUC(0-inf) [1]: 24 µg·h/mL | Cmax [1]: 0.598 µg/mL | AUC(0-t) [1]: 23.7 µg·h/mL | AUC [1]: 9.51 µg·h/mL | half-life (oral, 15 mg, Multiple doses day 28, 15 mg, n=1, read-out: T1/2 (converted)): 27.9 h | Tmax (oral, 15 mg, Multiple doses day 28, 15 mg, n=1, read-out: Tmax): 2 h | Vd/F [1]: 63.5 L | AUC(0-inf) [2]: 6.19 µg·h/mL | Cmax [2]: 0.345 µg/mL | AUC(0-t) [2]: 6.12 µg·h/mL | AUC [2]: 3.76 µg·h/mL | half-life (oral, 15 mg, Single dose day 1, 15 mg, n=1, read-out: T1/2 (converted)): 31.4 h | Tmax (oral, 15 mg, Single dose day 1, 15 mg, n=1, read-out: Tmax): 3 h | Vd/F [2]: 110 L | AUC(0-inf) [3]: 84.1 µg·h/mL | Cmax [3]: 1.79 µg/mL | AUC(0-t) [3]: 81.2 µg·h/mL | AUC [3]: 27.6 µg·h/mL | half-life (oral, 30 mg, Multiple doses day 28, 30 mg, n=1, read-out: T1/2 (converted)): 38.4 h | Tmax (oral, 30 mg, Multiple doses day 28, 30 mg, n=1, read-out: Tmax): 2 h | Vd/F [3]: 60.2 L | AUC(0-inf) [4]: 29.9 µg·h/mL | Cmax [4]: 0.796 µg/mL | AUC(0-t) [4]: 29.1 µg·h/mL | AUC [4]: 12.3 µg·h/mL | half-life (oral, 30 mg, Single dose day 1, 30 mg, n=1, read-out: T1/2 (converted)): 31.9 h | Tmax (oral, 30 mg, Single dose day 1, 30 mg, n=1, read-out: Tmax): 3 h | Vd/F [4]: 46.2 L | AUC(0-inf) [5]: 91.1 µg·h/mL | Cmax [5]: 2.72 µg/mL | AUC(0-t) [5]: 89.7 µg·h/mL | AUC [5]: 37 µg·h/mL | Vd/F [5]: 60.5 L | half-life (oral, 60 mg, Multiple doses day 28, 60 mg, n=3, Mean ± SD, read-out: T1/2 (converted)): 26.1 ± 4.5 h | Tmax (oral, 60 mg, Multiple doses day 28, 60 mg, n=3, Median (Min, Max), read-out: Tmax): 2 h | AUC(0-inf) [6]: 29.2 µg·h/mL | Cmax [6]: 1.34 µg/mL | AUC(0-t) [6]: 28.7 µg·h/mL | AUC [6]: 13.7 µg·h/mL | Vd/F [6]: 71.8 L | half-life (oral, 60 mg, Single dose day 1, 60 mg, n=5, Mean ± SD, read-out: T1/2 (converted)): 24.7 ± 5.7 h | Tmax (oral, 60 mg, Single dose day 1, 60 mg, n=5, Median (Min, Max), read-out: Tmax): 2 h | AUC(0-inf) [7]: 156 µg·h/mL | Cmax [7]: 4.33 µg/mL | AUC(0-t) [7]: 146 µg·h/mL | AUC [7]: 57.3 µg·h/mL | Vd/F [7]: 90.9 L | half-life (oral, 100 mg, Multiple doses day 28, 100 mg, n=5, Mean ± SD, read-out: T1/2 (converted)): 38.2 ± 14.3 h | Tmax (oral, 100 mg, Multiple doses day 28, 100 mg, n=5, Median (Min, Max), read-out: Tmax): 2 h | AUC(0-inf) [8]: 57.7 µg·h/mL | Cmax [8]: 1.89 µg/mL | AUC(0-t) [8]: 56 µg·h/mL | AUC [8]: 24.4 µg·h/mL | Vd/F [8]: 79.8 L | half-life (oral, 100 mg, Single dose day 1, 100 mg, n=7, Mean ± SD, read-out: T1/2 (converted)): 32.8 ± 8.5 h | Tmax (oral, 100 mg, Single dose day 1, 100 mg, n=7, Median (Min, Max), read-out: Tmax): 2 h | AUC(0-inf) [9]: 50.6 µg·h/mL | Cmax [9]: 2.93 µg/mL | AUC(0-t) [9]: 50.5 µg·h/mL | AUC [9]: 33.6 µg·h/mL | half-life (oral, 150 mg, Multiple doses day 28, 150 mg, n=1, read-out: T1/2 (converted)): 13.8 h | Tmax (oral, 150 mg, Multiple doses day 28, 150 mg, n=1, read-out: Tmax): 2 h | Vd/F [9]: 88.7 L | AUC(0-inf) [10]: 68.5 µg·h/mL | Cmax [10]: 2.97 µg/mL | AUC(0-t) [10]: 65.5 µg·h/mL | AUC [10]: 30.5 µg·h/mL | Vd/F [10]: 99.8 L | half-life (oral, 150 mg, Single dose day 1, 150 mg, n=4, Mean ± SD, read-out: T1/2 (converted)): 33.9 ± 13.7 h | Tmax (oral, 150 mg, Single dose day 1, 150 mg, n=4, Median (Min, Max), read-out: Tmax): 2.5 h | Tmax (po, multiple doses, oral, read-out: median Tmax): 2 h | half-life (po, multiple oral doses, read-out: mean half-life, range over cohorts): 13.8 to 38.4 h | Tmax (po, single dose, oral, read-out: median Tmax): 2 to 3 h | half-life (po, single oral dose, read-out: mean half-life, range over cohorts): 24.7 to 33.9 h
